Measured values: patent US20260183275A1, “SUBSTITUTED QUINOLONE COMPOUNDS USEFUL AS INHIBITORS OF TLR9” (Bristol-Myers Squibb Company, priority 2022, published 2026)

Columns and labels:
Type in all cases: cell-based
[1] = molecular target: T1, human TLR7 (Homo sapiens, UniProt Q9NYK1); assay: TLR7 inhibition reporter assay (HEK-Blue cells, SEAP reporter); conditions: HEK-Blue cells overexpressing human TLR7; stimulated with gardiquimod 7.5 μM; SEAP read after 22 hour; dose range 0.05 nM-50 μM
T1 construct: host or cells: HEK-Blue cells
T1 sequence (Q9NYK1 27-1049): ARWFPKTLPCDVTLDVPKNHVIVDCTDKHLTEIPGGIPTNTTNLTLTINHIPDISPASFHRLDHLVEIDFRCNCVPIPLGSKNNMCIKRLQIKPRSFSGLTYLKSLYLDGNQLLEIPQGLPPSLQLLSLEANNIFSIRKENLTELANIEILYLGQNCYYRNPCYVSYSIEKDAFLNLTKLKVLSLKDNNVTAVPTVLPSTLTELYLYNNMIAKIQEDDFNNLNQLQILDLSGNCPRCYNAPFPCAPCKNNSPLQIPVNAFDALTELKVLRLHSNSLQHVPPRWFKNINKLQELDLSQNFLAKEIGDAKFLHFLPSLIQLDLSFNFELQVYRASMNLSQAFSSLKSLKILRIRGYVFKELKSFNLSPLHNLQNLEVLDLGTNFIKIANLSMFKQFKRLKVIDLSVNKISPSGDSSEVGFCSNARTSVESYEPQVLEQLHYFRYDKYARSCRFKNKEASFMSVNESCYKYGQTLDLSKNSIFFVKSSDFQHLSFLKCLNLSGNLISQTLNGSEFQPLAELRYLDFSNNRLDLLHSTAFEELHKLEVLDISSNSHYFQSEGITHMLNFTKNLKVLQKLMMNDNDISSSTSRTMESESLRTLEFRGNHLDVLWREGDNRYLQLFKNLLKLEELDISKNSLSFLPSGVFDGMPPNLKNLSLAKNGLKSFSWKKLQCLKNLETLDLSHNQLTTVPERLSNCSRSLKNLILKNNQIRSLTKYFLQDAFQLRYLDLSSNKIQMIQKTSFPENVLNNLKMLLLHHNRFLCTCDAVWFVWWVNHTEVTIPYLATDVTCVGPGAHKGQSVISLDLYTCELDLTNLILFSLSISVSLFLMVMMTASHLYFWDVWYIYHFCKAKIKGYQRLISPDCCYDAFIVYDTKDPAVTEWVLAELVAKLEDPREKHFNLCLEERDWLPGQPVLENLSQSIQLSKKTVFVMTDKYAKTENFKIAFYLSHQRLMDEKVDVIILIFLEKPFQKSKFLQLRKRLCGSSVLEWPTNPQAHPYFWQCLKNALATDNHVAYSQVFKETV
Method: (§1) HEK-Blue™-cells (Invivogen) overexpressing human TLR7, TLR8 or TLR9 receptors were used for screening inhibitors of these receptors using an inducible SEAP (secreted embryonic alkaline phosphatase) reporter gene under the control of the IFN-β minimal promoter fused to five NF-κB and AP-1-binding sites. Briefly, cells are seeded into Greiner 384 well plates (15000 cells per well for TLR7, 20,000 for TLR8 and 25,000 for TLR9) and then treated with test compounds in DMSO to yield a final dose response concentration range of 0.05 nM-50 μM. After a 30 minute compound pre-treatment at room temperature, the cells are then stimulated with a TLR7 ligand (gardiquimod at a final concentration of 7.5 μM), TLR8 ligand (R848 at a final concentration of 15.9 μM) or TLR9 ligand (ODN2006 at a final concentration of 5 nM) to activate NF-κB and AP-1 which induce the production of SEAP. After a 22 hour incubation at 37° C., 5% CO2, SEAP levels are determined with the addition of HEK-Blue™ Detection reagent (Invivogen), a cell culture medium that allows for detection of SEAP, according to manufacturer's specifications. The percent inhibition is determined as the % reduction in the HEK-Blue signal present in wells treated with agonist plus DMSO alone compared to wells treated with a known inhibitor.

[2] = molecular target: T2, human TLR9 (Homo sapiens, UniProt Q9NR96); assay: TLR9 inhibition reporter assay (HEK-Blue cells, SEAP reporter); conditions: HEK-Blue cells overexpressing human TLR9; stimulated with ODN2006 5 nM; SEAP read after 22 hour; dose range 0.05 nM-50 μM
T2 construct: host or cells: HEK-Blue cells
T2 sequence (Q9NR96 26-1032): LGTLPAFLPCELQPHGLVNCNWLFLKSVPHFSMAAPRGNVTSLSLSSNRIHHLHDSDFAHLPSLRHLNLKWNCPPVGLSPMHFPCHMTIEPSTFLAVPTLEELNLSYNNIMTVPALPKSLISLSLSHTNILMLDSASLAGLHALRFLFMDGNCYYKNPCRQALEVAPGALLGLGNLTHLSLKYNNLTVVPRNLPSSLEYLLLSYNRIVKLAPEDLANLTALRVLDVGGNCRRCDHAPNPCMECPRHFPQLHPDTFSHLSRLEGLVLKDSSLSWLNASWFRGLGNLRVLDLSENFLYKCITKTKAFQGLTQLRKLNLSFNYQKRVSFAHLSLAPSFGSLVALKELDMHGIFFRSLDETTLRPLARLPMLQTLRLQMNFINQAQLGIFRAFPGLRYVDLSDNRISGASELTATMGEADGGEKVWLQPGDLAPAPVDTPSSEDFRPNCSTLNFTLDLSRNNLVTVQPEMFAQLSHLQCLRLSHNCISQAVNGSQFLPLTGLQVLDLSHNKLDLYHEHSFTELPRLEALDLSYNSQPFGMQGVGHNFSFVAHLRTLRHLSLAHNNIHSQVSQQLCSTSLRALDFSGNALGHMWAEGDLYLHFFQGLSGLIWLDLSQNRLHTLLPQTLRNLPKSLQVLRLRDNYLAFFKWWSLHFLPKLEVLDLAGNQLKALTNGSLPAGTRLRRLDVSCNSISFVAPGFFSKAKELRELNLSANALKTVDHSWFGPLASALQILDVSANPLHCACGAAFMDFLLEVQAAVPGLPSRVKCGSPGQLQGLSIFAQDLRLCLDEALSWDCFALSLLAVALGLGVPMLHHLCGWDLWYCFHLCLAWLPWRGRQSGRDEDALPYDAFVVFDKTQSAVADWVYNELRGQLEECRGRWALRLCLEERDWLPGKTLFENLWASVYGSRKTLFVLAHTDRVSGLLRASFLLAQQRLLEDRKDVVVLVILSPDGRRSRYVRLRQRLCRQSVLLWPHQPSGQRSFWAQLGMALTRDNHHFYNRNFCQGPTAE
Method: as §1

[3] = molecular target: T3, human TLR8 (Homo sapiens, UniProt Q9NR97); assay: TLR8 inhibition reporter assay (HEK-Blue cells, SEAP reporter); conditions: HEK-Blue cells overexpressing human TLR8; stimulated with R848 15.9 μM; SEAP read after 22 hour; dose range 0.05 nM-50 μM
T3 construct: host or cells: HEK-Blue cells
T3 sequence (Q9NR97 27-1041): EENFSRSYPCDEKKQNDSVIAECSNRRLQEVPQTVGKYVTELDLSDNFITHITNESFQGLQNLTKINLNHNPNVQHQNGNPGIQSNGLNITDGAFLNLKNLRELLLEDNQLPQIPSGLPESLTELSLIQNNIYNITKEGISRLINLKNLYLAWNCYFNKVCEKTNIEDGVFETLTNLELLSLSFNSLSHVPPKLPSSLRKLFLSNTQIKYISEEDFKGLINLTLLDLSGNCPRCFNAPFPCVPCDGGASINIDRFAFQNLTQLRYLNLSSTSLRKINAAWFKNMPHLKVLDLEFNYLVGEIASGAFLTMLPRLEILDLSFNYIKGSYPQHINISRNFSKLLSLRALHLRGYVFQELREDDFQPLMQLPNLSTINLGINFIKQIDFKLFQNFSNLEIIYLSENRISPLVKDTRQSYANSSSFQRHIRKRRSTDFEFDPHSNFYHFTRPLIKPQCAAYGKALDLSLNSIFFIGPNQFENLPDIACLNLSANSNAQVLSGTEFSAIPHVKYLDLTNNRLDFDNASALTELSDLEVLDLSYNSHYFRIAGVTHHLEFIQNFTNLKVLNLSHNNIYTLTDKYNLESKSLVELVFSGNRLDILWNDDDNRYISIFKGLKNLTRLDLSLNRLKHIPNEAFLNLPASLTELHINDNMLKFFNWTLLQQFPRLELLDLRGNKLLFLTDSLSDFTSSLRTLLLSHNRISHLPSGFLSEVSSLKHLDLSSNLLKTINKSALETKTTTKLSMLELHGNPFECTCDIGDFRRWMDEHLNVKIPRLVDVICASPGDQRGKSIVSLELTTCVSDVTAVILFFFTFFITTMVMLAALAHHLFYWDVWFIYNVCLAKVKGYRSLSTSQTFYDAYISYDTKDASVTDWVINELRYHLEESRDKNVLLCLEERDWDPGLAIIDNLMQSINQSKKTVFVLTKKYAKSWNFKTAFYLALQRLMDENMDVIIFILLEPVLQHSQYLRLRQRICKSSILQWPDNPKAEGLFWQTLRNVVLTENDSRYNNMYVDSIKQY
Method: as §1

Row | IC50 [1] [µM] | IC50 [2] [nM] | IC50 [3] [µM] | SMILES
1 | 4.69 | 206 | ≥ 50 | CC(C)N1CCN(c2ccc(-c3ccc4[nH]c(=O)c(-c5ccc(S(C)(=O)=O)cc5)cc4c3)cc2)CC1 [Example 4, 3-(4-methanesulfonylphenyl)-6-{4-[4-(propan-2-yl)piperazin-1-yl]phenyl}-1,2-dihydroquinolin-2-one]
2 | 3.87 | 59 | ≥ 50 | CC(=O)Nc1ccc(-c2cc3cc(-c4ccc(N5CCN(C(C)C)CC5)cc4)ccc3[nH]c2=O)cc1 [Example 5, N-[4-(2-oxo-6-{4-[4-(propan-2-yl)piperazin-1-yl]phenyl}-1,2-dihydroquinolin-3-yl)phenyl]acetamide]
3 | 3.83 | 79 | ≥ 50 | CC(C)N1CCN(c2ccc(-c3ccc4[nH]c(=O)c(-c5ccccn5)cc4c3)cc2)CC1 [Example 6, 6-{4-[4-(propan-2-yl)piperazin-1-yl]phenyl}-3-(pyridin-2-yl)-1,2-dihydroquinolin-2-one]
4 | 1.13 | 80 | ≥ 50 | CC(C)N1CCN(c2ccc(-c3ccc4[nH]c(=O)c(-c5ccc(-n6cnnn6)cc5)cc4c3)cc2)CC1 [Example 7, 3-(4-(1H-tetrazol-1-yl)phenyl)-6-(4-(4-isopropylpiperazin-1-yl)phenyl)quinolin-2(1H)-one]
5 | 0.299 | 87 | 1.82 | CC(C)N1CCN(c2ccc(-c3ccc4[nH]c(=O)c(-c5cccc(NS(C)(=O)=O)c5)cc4c3)cc2)CC1 [Example 8, N-[3-(2-oxo-6-{4-[4-(propan-2-yl)piperazin-1-yl]phenyl}-1,2-dihydroquinolin-3-yl)phenyl]methanesulfonamide]
6 | 3.07 | 96 | 13.7 | CC(C)N1CCN(c2ccc(-c3ccc4[nH]c(=O)c(-c5ccc(N(C)C)cc5)cc4c3)cc2)CC1 [Example 9, 3-[4-(dimethylamino)phenyl]-6-{4-[4-(propan-2-yl)piperazin-1-yl]phenyl}-1,2-dihydroquinolin-2-one]
7 | ≥ 50 | 118 | ≥ 50 | CC(C)N1CCN(c2ccc(-c3ccc4[nH]c(=O)c(-c5cc(F)c(F)cc5F)cc4c3)cc2)CC1 [Example 10, 6-{4-[4-(propan-2-yl)piperazin-1-yl]phenyl}-3-(2,4,5-trifluorophenyl)-1,2-dihydroquinolin-2-one]
8 | ≥ 50 | 119 | 2.05 | CC(C)N1CCN(c2ccc(-c3ccc4[nH]c(=O)c(-c5ccc(S(N)(=O)=O)cc5)cc4c3)cc2)CC1 [Example 11, 4-(2-oxo-6-{4-[4-(propan-2-yl)piperazin-1-yl]phenyl}-1,2-dihydroquinolin-3-yl) benzene-1-sulfonamide]
9 | 3 | 121 | 7.56 | CC(C)N1CCN(c2ccc(-c3ccc4[nH]c(=O)c(-c5ccc(C#N)cc5)cc4c3)cc2)CC1 [Example 12, 4-(2-oxo-6-{4-[4-(propan-2-yl)piperazin-1-yl]phenyl}-1,2-dihydroquinolin-3-yl)benzonitrile]
10 | 4.89 | 122 | ≥ 50 | CC(C)N1CCN(c2ccc(-c3ccc4[nH]c(=O)c(-c5ccc(C(=O)N(C)C6COC6)cc5)cc4c3)cc2)CC1 [Example 13, N-methyl-N-(oxetan-3-yl)-4-(2-oxo-6-{4-[4-(propan-2-yl)piperazin-1-yl]phenyl}-1,2-dihydroquinolin-3-yl)benzamide]
11 | 0.459 | 259 | 1.03 | CC(C)N1CCN(c2ccc(-c3ccc4[nH]c(=O)c(-c5ccccc5C#N)cc4c3)cc2)CC1 [Example 15, 2-(2-oxo-6-{4-[4-(propan-2-yl)piperazin-1-yl]phenyl}-1,2-dihydroquinolin-3-yl)benzonitrile]
12 | 1.08 | 307 | – | CC(C)N1CCN(c2ccc(-c3ccc4[nH]c(=O)c(-c5cncnc5)cc4c3)cc2)CC1 [Example 34, 6-{4-[4-(propan-2-yl)piperazin-1-yl]phenyl}-3-(pyrimidin-5-yl)-1,2-dihydroquinolin-2-one]
13 | – | 449 | 0.118 | CC(C)N1CCC(c2ccc(-c3ccc4[nH]c(=O)c(-c5ccc(N(C)C)cc5)cc4c3)cc2)CC1 [Example 88, 3-[4-(dimethylamino)phenyl]-6-{4-[1-(propan-2-yl)piperidin-4-yl]phenyl}-1,2-dihydroquinolin-2-one]
